From ChEMBL document CHEMBL4828766 (J Med Chem, 2021)
The source made the active and inactive calls. The rule behind the calls is not given here. Square brackets hold non-standard residues; d marks the D form. Peptide text beside a SMILES is read from it. Phe(4-I) = N[C@@H](Cc1ccc(I)cc1)C(=O)O; dPhe(4-I) = N[C@H](Cc1ccc(I)cc1)C(=O)O; 2Nal = N[C@@H](Cc1ccc2ccccc2c1)C(=O)O; d2Nal = N[C@H](Cc1ccc2ccccc2c1)C(=O)O

Key:
[1] = biological target: Melanocortin receptor 4 (Homo sapiens) (UniProt P32245); assay: Inhibition of [125 I][Nle 4,D -Phe 7]alpha-MSH binding to human MC4R expressed in African green monkey COS-1 cell membrane by gamma-counter method; type: cell membranes
[2] = biological target: Melanocortin receptor 3 (Homo sapiens) (UniProt P41968); assay: Inhibition of [125 I][Nle 4,D -Phe 7]alpha-MSH binding to human MC3R expressed in African green monkey COS-1 cell membrane by gamma-counter method; type: cell membranes
[3] = biological target: Melanocyte-stimulating hormone receptor (Mus musculus) (UniProt Q01727); assay: Agonist activity at mouse MC1R expressed in HEK293 cells assessed as induction of cAMP level at 100 uM incubated for 2 hr by alphaScreen assay relative to NDP-MSH; type: functional, cell-based; settings: filed as agonist
Melanocortin receptor 3 [4] = biological target: T1, Melanocortin receptor 3 (Mus musculus, UniProt P33033); assay: Agonist activity at mouse MC3R expressed in HEK293 cells assessed as induction of cAMP level incubated for 2 hr by alphaScreen assay; type: functional, cell-based
[5] = biological target: Melanocortin receptor 5 (Mus musculus) (UniProt P41149); assay: Agonist activity at mouse MC5R expressed in HEK293 cells assessed as induction of cAMP level at 100 uM incubated for 2 hr by alphaScreen assay relative to control; type: functional, cell-based
Melanocortin receptor 3 [6] = biological target: T1, Melanocortin receptor 3; assay: (§1) Antagonist activity at mouse melanocortin receptor 3 expressed in HEK293 cells assessed as inhibition of NDP-MSH-induced cAMP accumulation incubated for 2 hrs by cAMP Alpha-screen assay based Schild analysis; type: functional, cell-based; settings: for Kb: read-out: pA2 (converted)
Melanocortin receptor 4 [7] = biological target: T2, Melanocortin receptor 4 (Mus musculus, UniProt P56450); assay: Antagonist activity at mouse melanocortin receptor 4 expressed in HEK293 cells assessed as inhibition of NDP-MSH-induced cAMP accumulation incubated for 2 hrs by cAMP Alpha-screen assay based Schild analysis; type: functional, cell-based; settings: for Kb: read-out: pA2 (converted)
Melanocortin receptor 4 [8] = biological target: T2, Melanocortin receptor 4; assay: Agonist activity at mouse MC4R expressed in HEK293 cells assessed as induction of cAMP level incubated for 2 hr by alphaScreen assay; type: functional, cell-based
[9] = biological target: T3, Melanocyte-stimulating hormone receptor (Mus musculus, UniProt Q01727); assay: Partial agonist activity at mouse MC1R expressed in HEK293 cells assessed as induction of cAMP level incubated for 2 hr by alphaScreen assay; type: functional, cell-based
[10] = biological target: Melanocortin receptor 3 (Mus musculus) (UniProt P33033); assay: Agonist activity at mouse MC3R expressed in HEK293 cells assessed as induction of cAMP level at 100 uM incubated for 2 hr by alphaScreen assay relative to control; type: functional, cell-based
Melanocortin receptor 5 = Melanocortin receptor 5 (Mus musculus, UniProt P41149); assay: Agonist activity at mouse MC5R expressed in HEK293 cells assessed as induction of cAMP level at 100 uM incubated for 2 hr by alphaScreen assay; type: functional, cell-based
[11] = biological target: Melanocyte-stimulating hormone receptor (Mus musculus) (UniProt Q01727); assay: Partial agonist activity at mouse MC1R expressed in HEK293 cells assessed as induction of cAMP level at 100 uM incubated for 2 hr by alphaScreen assay relative to control; type: functional, cell-based
[12] = biological target: Melanocortin receptor 4 (Mus musculus) (UniProt P56450); assay: (§2) Agonist activity at mouse MC4R expressed in HEK293 cells assessed as induction of cAMP level at 100 uM incubated for 2 hr by alphaScreen assay relative to control; type: functional, cell-based
Target sequence in this assay (P56450 whole entry): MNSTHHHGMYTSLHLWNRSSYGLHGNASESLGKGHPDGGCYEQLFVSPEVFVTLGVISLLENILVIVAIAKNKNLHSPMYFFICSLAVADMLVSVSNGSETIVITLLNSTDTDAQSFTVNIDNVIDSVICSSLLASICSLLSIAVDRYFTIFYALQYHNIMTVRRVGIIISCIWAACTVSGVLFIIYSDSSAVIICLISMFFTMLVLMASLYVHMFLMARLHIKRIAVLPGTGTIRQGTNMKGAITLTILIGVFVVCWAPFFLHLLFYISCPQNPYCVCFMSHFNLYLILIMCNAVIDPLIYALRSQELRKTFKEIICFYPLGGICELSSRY

[13] = biological target: T3, Melanocyte-stimulating hormone receptor; assay: Agonist activity at mouse MC1R expressed in HEK293 cells assessed as induction of cAMP level at 100 uM incubated for 2 hr by alphaScreen assay; type: functional, cell-based
[14] = biological target: Melanocortin receptor 3 (Mus musculus) (UniProt P33033); assay: as §1; type: functional, cell-based
[15] = biological target: Melanocortin receptor 4 (Mus musculus) (UniProt P56450); assay: Antagonist activity at mouse melanocortin receptor 4 expressed in HEK293 cells assessed as inhibition of NDP-MSH-induced cAMP accumulation incubated for 2 hrs by cAMP Alpha-screen assay based Schild analysis
Target sequence in this assay (P56450 whole entry, looked up): as the sequence (P56450 whole entry) above

Melanocortin receptor 4 [16] = biological target: T2, Melanocortin receptor 4; assay: as §2; type: functional, cell-based

Melanocortin receptor 5 (Mus musculus), sequence (P41149 whole entry): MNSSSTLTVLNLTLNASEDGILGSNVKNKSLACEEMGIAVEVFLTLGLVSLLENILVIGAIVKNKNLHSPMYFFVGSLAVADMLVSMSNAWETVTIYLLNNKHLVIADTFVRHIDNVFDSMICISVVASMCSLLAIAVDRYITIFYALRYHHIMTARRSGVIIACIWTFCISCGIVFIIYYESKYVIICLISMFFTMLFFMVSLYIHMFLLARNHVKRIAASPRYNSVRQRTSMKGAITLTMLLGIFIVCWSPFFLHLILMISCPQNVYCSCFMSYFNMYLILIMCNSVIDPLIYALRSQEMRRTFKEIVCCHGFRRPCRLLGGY
Melanocortin receptor 5, sequence (P41149 whole entry): as above
T3 sequence (Q01727 whole entry): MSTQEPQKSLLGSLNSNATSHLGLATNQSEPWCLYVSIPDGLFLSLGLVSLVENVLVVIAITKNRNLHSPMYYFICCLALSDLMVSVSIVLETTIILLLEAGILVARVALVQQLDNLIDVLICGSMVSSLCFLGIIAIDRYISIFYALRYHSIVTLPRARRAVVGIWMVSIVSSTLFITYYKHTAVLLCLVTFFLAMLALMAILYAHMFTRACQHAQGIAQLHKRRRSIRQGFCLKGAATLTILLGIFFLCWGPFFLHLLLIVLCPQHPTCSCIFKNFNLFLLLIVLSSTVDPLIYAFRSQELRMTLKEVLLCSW
Melanocyte-stimulating hormone receptor (Mus musculus), sequence (Q01727 whole entry, looked up): as the sequence (Q01727 whole entry) above
T1 sequence (P33033 whole entry): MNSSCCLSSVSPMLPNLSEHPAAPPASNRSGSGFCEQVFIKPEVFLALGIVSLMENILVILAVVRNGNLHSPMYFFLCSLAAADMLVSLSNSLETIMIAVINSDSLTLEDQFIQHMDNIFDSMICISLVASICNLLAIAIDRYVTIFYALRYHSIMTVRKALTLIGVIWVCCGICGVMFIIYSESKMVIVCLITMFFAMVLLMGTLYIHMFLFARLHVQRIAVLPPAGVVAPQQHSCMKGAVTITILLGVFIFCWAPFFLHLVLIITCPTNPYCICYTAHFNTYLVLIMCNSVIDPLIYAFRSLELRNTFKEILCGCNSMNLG
Melanocortin receptor 3 (Mus musculus), sequence (P33033 whole entry): as above
T2 sequence (P56450 whole entry): as the sequence (P56450 whole entry) above
Melanocortin receptor 3 (Homo sapiens), sequence (P41968 whole entry): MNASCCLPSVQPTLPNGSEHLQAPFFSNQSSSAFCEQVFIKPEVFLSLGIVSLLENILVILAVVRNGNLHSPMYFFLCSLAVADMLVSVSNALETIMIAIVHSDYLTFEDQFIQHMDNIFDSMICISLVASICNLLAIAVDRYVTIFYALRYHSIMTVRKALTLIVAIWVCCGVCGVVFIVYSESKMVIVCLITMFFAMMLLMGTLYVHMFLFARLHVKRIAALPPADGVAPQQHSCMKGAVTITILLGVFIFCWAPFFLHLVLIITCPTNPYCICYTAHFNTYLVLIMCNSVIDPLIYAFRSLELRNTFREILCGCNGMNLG
Melanocortin receptor 4 (Homo sapiens), sequence (P32245 whole entry): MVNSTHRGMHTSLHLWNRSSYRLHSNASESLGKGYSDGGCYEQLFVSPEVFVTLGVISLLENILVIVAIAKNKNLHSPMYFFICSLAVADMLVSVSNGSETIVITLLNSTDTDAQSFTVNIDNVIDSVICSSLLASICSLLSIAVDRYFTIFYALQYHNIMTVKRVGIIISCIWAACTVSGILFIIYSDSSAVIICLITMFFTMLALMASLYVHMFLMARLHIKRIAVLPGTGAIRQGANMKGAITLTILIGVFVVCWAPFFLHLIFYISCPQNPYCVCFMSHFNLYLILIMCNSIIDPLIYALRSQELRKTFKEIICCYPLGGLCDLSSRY

In the case of `CC(=O)N[C@@H](Cc1ccc2ccccc2c1)C(=O)N[C@@H](CCCNC(=N)N)C(=O)N[C@@H](Cc1ccc2ccccc2c1)C(N)=O`, the Activity [1] is reported as 11.6 nM and the Activity [2] is reported as 1120 nM.

For `CC(=O)N[C@H](Cc1ccc2ccccc2c1)C(=O)N[C@H](Cc1ccc2ccccc2c1)C(=O)N[C@@H](Cc1ccc2ccccc2c1)C(=O)N[C@@H](CCCNC(=N)N)C(N)=O`, the Activity [3] was 55%, the EC50 (Melanocortin receptor 3 [4]) was > 100 µM and the Activity ([5]; filed as agonist) was 40%. The Kb (Melanocortin receptor 3 [6]) was > 3.16 µM, the Kb (Melanocortin receptor 4 [7]) was > 3.16 µM and the EC50 (Melanocortin receptor 4 [8]) was > 100 µM.

For `CC(=O)N[C@H](Cc1ccc(I)cc1)C(=O)N[C@@H](CCCNC(=N)N)C(=O)N[C@@H](Cc1c[nH]c2ccccc12)C(=O)N[C@@H](CCCNC(=N)N)C(N)=O` (Ac-[dPhe(4-I)]RWR-NH2), the EC50 [9] was 7.9 µM, the Activity [10] was 25% and the EC50 (Melanocortin receptor 5) was > 100 µM. It also gave a Ki (Melanocortin receptor 3 [6]) of 0.04 µM, a Kb (Melanocortin receptor 3 [6]) of 0.0398 µM and a Ki (Melanocortin receptor 4 [7]) of 0.002 µM. For the same compound, the Kb (Melanocortin receptor 4 [7]) was 0.002 µM, the EC50 (Melanocortin receptor 4 [8]) was > 100 µM and the Activity ([11]; filed as partial agonist) was 50%.

For `CC(=O)N[C@H](Cc1ccc2ccccc2c1)C(=O)N[C@@H](CCCNC(=N)N)C(=O)N[C@@H](Cc1ccc2ccccc2c1)C(=O)N[C@H](Cc1ccc2ccccc2c1)C(N)=O` (Ac-[d2Nal]R[2Nal][d2Nal]-NH2), the Activity [10] was 30%, the Activity [5] was 25% and the Kb (Melanocortin receptor 3 [6]) was > 3.16 µM. For the same compound, the Kb (Melanocortin receptor 4 [7]) was 0.2 µM and the Activity [12] was 30%.

`CC(=O)N[C@H](Cc1ccc(I)cc1)C(=O)N[C@@H](CCCNC(=N)N)C(=O)N[C@H](Cc1ccc(I)cc1)C(=O)N[C@H](Cc1ccc2ccccc2c1)C(N)=O` (Ac-[dPhe(4-I)]R[dPhe(4-I)][d2Nal]-NH2) was tested, and the EC50 [13] was 1.1 µM, the Activity ([10]; filed as agonist) was 40% and the Activity ([5]; filed as agonist) was 65%. For the same compound, the Ki (Melanocortin receptor 3 [6]) was 0.5 µM, the Kb (Melanocortin receptor 3 [6]) was 0.501 µM and the Ki (Melanocortin receptor 4 [7]) was 0.25 µM. The Kb (Melanocortin receptor 4 [7]) was 0.251 µM and the Activity ([12]; filed as agonist) was 40%.

`CC(=O)N[C@H](Cc1ccc2ccccc2c1)C(=O)N[C@H](Cc1ccc2ccccc2c1)C(=O)N[C@@H](Cc1c[nH]c2ccccc12)C(=O)N[C@@H](CCCNC(=N)N)C(N)=O` (Ac-[d2Nal][d2Nal]WR-NH2) showed an Activity [3] of 45%, an Activity [10] of 35% and an Activity ([5]; filed as agonist) of 45%. The Kb (Melanocortin receptor 3 [6]) was > 3.16 µM, the Kb (Melanocortin receptor 4 [7]) was > 3.16 µM and the Activity ([12]; filed as agonist) was 60%.

In the case of `CC(=O)N[C@H](Cc1ccc(I)cc1)C(=O)N[C@@H](CCCNC(=N)N)C(=O)N[C@H](Cc1ccc2ccccc2c1)C(=O)N[C@H](CCCCN)C(N)=O` (Ac-[dPhe(4-I)]R[d2Nal][dK]-NH2), the Activity [11] is reported as 30%.

With `CC(=O)N[C@@H](Cc1ccc(I)cc1)C(=O)N[C@@H](Cc1ccc2ccccc2c1)C(=O)N[C@@H](Cc1ccc(I)cc1)C(=O)N[C@@H](CCCNC(=N)N)C(N)=O` (Ac-[Phe(4-I)][2Nal][Phe(4-I)]R-NH2) the Activity [3] was 60%, the EC50 (Melanocortin receptor 3 [4]) was > 100 µM and the EC50 (Melanocortin receptor 5) was > 100 µM. For the same compound, the pA2 [14] was “inactive”, the EC50 (Melanocortin receptor 4 [8]) was > 100 µM and the pA2 [15] was “inactive”.

Compound `CC(=O)N[C@H](Cc1ccc(I)cc1)C(=O)N[C@H](Cc1ccc2ccccc2c1)C(=O)N[C@@H](Cc1ccc2ccccc2c1)C(=O)N[C@H](CCCCN)C(N)=O` (Ac-[dPhe(4-I)][d2Nal][2Nal][dK]-NH2) has an Activity [3] of 40%, an Activity [10] of 20% and an Activity ([5]; filed as agonist) of 50%. The Kb (Melanocortin receptor 3 [6]) was > 3.16 µM, the Kb (Melanocortin receptor 4 [7]) was > 3.16 µM and the EC50 (Melanocortin receptor 4 [8]) was > 100 µM. For the same compound, the EC50 (Melanocortin receptor 4 [16]) was > 100 µM.

With `CC(=O)N[C@H](Cc1ccc2ccccc2c1)C(=O)N[C@@H](CCCNC(=N)N)C(=O)N[C@@H](Cc1ccc2ccccc2c1)C(=O)N[C@H](CCCCN)C(N)=O` (Ac-[d2Nal]R[2Nal][dK]-NH2) the EC50 [9] was 3.3 µM, the EC50 (Melanocortin receptor 3 [4]) was > 100 µM and the EC50 (Melanocortin receptor 5) was > 100 µM. For the same compound, the Kb (Melanocortin receptor 3 [6]) was 0.631 µM, the Kb (Melanocortin receptor 4 [7]) was 0.0158 µM and the EC50 (Melanocortin receptor 4 [8]) was > 100 µM. It also gave an Activity ([11]; filed as partial agonist) of 50%.

Work on `CC(=O)N[C@H](Cc1ccc2ccccc2c1)C(=O)N[C@@H](CCCNC(=N)N)C(=O)N[C@H](Cc1ccc(I)cc1)C(=O)N[C@H](Cc1ccc2ccccc2c1)C(N)=O` (Ac-[d2Nal]R[dPhe(4-I)][d2Nal]-NH2) yielded an Activity ([5]; filed as agonist) of 40% and an Activity [12] of 30%.

`CC(=O)N[C@H](Cc1ccc(I)cc1)C(=O)N[C@@H](CCCNC(=N)N)C(=O)N[C@H](Cc1ccc2ccccc2c1)C(=O)N[C@H](Cc1ccc2ccccc2c1)C(N)=O` (Ac-[dPhe(4-I)]R[d2Nal][d2Nal]-NH2) was tested, and the Activity [3] was 80%, the Activity ([10]; filed as agonist) was 45% and the Activity [5] was 20%. The Ki (Melanocortin receptor 3 [6]) was 0.79 µM, the Kb (Melanocortin receptor 3 [6]) was 0.794 µM and the Ki (Melanocortin receptor 4 [7]) was 0.2 µM. For the same compound, the Kb (Melanocortin receptor 4 [7]) was 0.2 µM and the Activity ([12]; filed as agonist) was 45%.

Work on `CC(=O)N[C@H](Cc1ccc2ccccc2c1)C(=O)N[C@@H](CCCNC(=N)N)C(=O)N[C@H](Cc1ccc2ccccc2c1)C(=O)N[C@H](Cc1ccc2ccccc2c1)C(N)=O` (Ac-[d2Nal]R[d2Nal][d2Nal]-NH2) yielded an EC50 [9] of 5 µM, an Activity ([10]; filed as agonist) of 50% and an Activity [5] of 20%. The Kb (Melanocortin receptor 3 [6]) was 2 µM, the Kb (Melanocortin receptor 4 [7]) was 0.501 µM and the Activity ([12]; filed as agonist) was 45%. It also gave an Activity ([11]; filed as partial agonist) of 85%.

In the case of `CC(=O)N[C@H](Cc1ccc2ccccc2c1)C(=O)N[C@@H](CCCNC(=N)N)C(=O)N[C@H](Cc1ccc2ccccc2c1)C(=O)N[C@@H](CCCNC(=N)N)C(N)=O` (Ac-[d2Nal]R[d2Nal]R-NH2), the EC50 [9] is reported as 1 µM, the EC50 (Melanocortin receptor 3 [4]) is reported as > 100 µM and the EC50 (Melanocortin receptor 5) is reported as > 100 µM. The Kb (Melanocortin receptor 3 [6]) was 0.794 µM, the Kb (Melanocortin receptor 4 [7]) was 0.00501 µM and the EC50 (Melanocortin receptor 4 [8]) was > 100 µM. It also gave an Activity ([11]; filed as partial agonist) of 60%.

With `CC(=O)N[C@H](Cc1ccc2ccccc2c1)C(=O)N[C@@H](CCCNC(=N)N)C(=O)N[C@H](Cc1ccc2ccccc2c1)C(=O)N[C@H](CCCCN)C(N)=O` (Ac-[d2Nal]R[d2Nal][dK]-NH2) the EC50 [9] was 6 µM, the EC50 (Melanocortin receptor 3 [4]) was > 100 µM and the EC50 (Melanocortin receptor 5) was > 100 µM. The Kb (Melanocortin receptor 3 [6]) was 1 µM, the Kb (Melanocortin receptor 4 [7]) was 0.00631 µM and the EC50 (Melanocortin receptor 4 [8]) was > 100 µM. For the same compound, the Activity [11] was 30%.
